pIC50: −log10 of the molar value. Values belong to the molecule of their own block, whether it stands above or below them.
Tests used:
CRTH2 receptor [1] = molecular target: T1, CRTH2 receptor (Homo sapiens, UniProt Q9Y5Y4); assay: PathHunter CHO-K1 CRTH2 β-arrestin antagonist assay; type: cell-based; settings: PathHunter CHO-K1 CRTH2 β-arrestin cells, PGD2 agonist at EC80
T1 sequence (Q9Y5Y4 1-395): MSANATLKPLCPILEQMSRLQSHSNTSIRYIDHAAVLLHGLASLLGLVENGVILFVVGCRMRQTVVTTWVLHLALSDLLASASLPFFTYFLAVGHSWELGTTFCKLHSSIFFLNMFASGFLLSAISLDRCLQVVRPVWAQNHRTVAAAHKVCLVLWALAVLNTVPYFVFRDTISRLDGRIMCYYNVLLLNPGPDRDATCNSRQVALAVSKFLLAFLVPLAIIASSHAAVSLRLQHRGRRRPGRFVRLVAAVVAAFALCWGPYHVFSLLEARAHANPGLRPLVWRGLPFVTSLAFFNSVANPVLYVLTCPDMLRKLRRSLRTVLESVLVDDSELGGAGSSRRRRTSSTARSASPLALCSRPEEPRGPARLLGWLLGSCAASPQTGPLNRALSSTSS
Procedure: PathHunter® CHO-K1 CRTH2 β-arrestin cells (DiscoverX, catalogue number 93-0291C2) grew under standard conditions, and were inoculated into a white-wall 384-well microplate at a density of 5,000 cells/well. 20 μL of Cell Plating Reagent 1 was used in each well. Before the test, the cells were incubated overnight at 37° C./5% CO2. A test compound was serially diluted in DMSO with a dilution factor of 3-fold to give 8 concentrations of the test compound. Shortly before the test, the serially diluted test compound was further diluted with the test buffer to 5 times of the test concentration. 5 μL of the further diluted test compound was added to the cells, and the cells were incubated for 30 min at 37° C. The concentration of the solvent was 1%. 5 μL of 6×EC80 agonist (PGD2) buffer was added to the cells, and the cells were incubated for 90 min at 37° C. Measured signals were generated by one-time addition of 15 μL (50% v/v) of PathHunter detection mixture reagent and subsequent one-hour incubation. The microplate was read through the chemiluminescent signals of PerkinElmer Envision™ reader. Biological activity of the test compound was analyzed by CBIS data analysis suite (ChemInnovation, CA), and was denoted as IC50 value.

[2] = Solid stability test of crystal form A (crystal form); type: physicochemical
Text: (§1) Samples placed under high temperature and high humidity conditions were sealed with aluminum foil, and small holes were made in the foil to ensure that the samples can fully contact with ambient air. Samples placed under strong light conditions were sealed with screw caps.

[3] = Plasma pharmacokinetic assay in mice; type: in vivo; settings: mouse, female C57 BL/6 mice
Procedure: Twelve female C57 BL/6 mice were used in plasma pharmacokinetic assay, randomly divided into two groups, with 6 animals in each group. Animals in the first group were administered intravenously 1 mg/kg of the test drug, and animals in the second group were administered intragastrically 5 mg/kg of the test drug. A formula comprising HPbCD and cosolvent (Solutol®) was used as formulation vehicle, and the obtained intravenous or intragastric formulations were all clear solutions. For animals in the intravenous group and the intragastric group, blood was collected from the saphenous vein at 0.0833, 0.25, 0.5, 1, 2, 4, 8, and 24 hours after administration, with 3 samples at each time point. Plasma samples collected from the intragastric administration group were frozen at −80° C. and thawed before LC-MS/MS sample analysis. The thawed plasma samples were subjected to protein precipitation by adding acetonitrile containing an internal standard in a certain ratio, and centrifuged to obtain a supernatant for LC-MS/MS injection. AP14000 or 5500 was used as the analytical instrument, ACQUITY UPLC BEH C18 (2.1×50 mm, 1.7 μm) was used as the chromatographic column, and the ionization of the test compound was performed by an ESI positive or negative ion source. There were 8 concentrations of the standard sample in each analysis batch, the ratio of the peak area of the test compound to the peak area of the internal standard (IS) was noted as Y, the concentration of the test compound in the plasma sample was noted as X, 1/x^2 was taken as the weighting coefficient to carry on the linear regression, and the regression equation of response and concentration was obtained. There were also corresponding quality control samples in each analysis batch. Phoenix 6.3 WinNonlin® was used for data processing to give corresponding PK parameters.

[4] = tested on: mice model of chronic/acute asthma induced by ovalbumin (OVA) and aluminum hydroxide (Al(OH)3); assay: Mice model of chronic/acute asthma induced by OVA and Al(OH)3; type: in vivo
[5] = Stability test of crystal form A (impurity content); type: physicochemical
Text: as §1

CRTH2 receptor [6] = molecular target: T1, CRTH2 receptor; settings: background statement; cited from earlier work

pIC50 (CRTH2 receptor [1]): > 7.00
Structure (SMILES): Cc1c(Cc2ccc3c(c2)C(F)(F)CCS3(=O)=O)c2cc(F)ccc2n1CC(=O)O [Compound 1]

Crystal Form ([2]; 40° C, Reletive Humidity 75%, Exposure, day 10): Crystal Form A
Crystal Form ([2]; 40° C, Reletive Humidity 75%, Exposure, day 30): Crystal Form A
Crystal Form ([2]; 40° C, Reletive Humidity 75%, Exposure, day 60): Crystal Form A
Crystal Form ([2]; 40° C, Reletive Humidity 75%, Exposure, day 90): Crystal Form A
Crystal Form ([2]; 60° C, Reletive Humidity 75%, Exposure, day 10): Crystal Form A
Crystal Form ([2]; 60° C, Reletive Humidity 75%, Exposure, day 30): Crystal Form A
Crystal Form ([2]; 60° C, Reletive Humidity 75%, Exposure, day 60): Crystal Form A
Crystal Form ([2]; 60° C, Reletive Humidity 75%, Exposure, day 90): Crystal Form A
Crystal Form ([2]; High Humidity (Room temperature/Reletive Humidity 92.5%, Exposure), day 5): Crystal Form A
Crystal Form ([2]; High Humidity (Room temperature/Reletive Humidity 92.5%, Exposure), day 10): Crystal Form A
Crystal Form ([2]; High Temperature (60° C., Exposure), day 5): Crystal Form A
Crystal Form ([2]; High Temperature (60° C., Exposure), day 10): Crystal Form A
Crystal Form ([2]; Strong Light (5000 lx, Sealed), day 5): Crystal Form A
Crystal Form ([2]; Strong Light (5000 lx, Sealed), day 10): Crystal Form A
Crystal Form ([2]; day 0): Crystal Form A
clearance ([3]; intravenous 1 mg/kg, read-out: Clearance Rate of Intravenous Administration (Cl, mL/min/kg)): 4.55 mL/min/kg
half-life ([3]; po, intragastric 5 mg/kg, read-out: Half-life of Intragastric Administration (T1/2, hr) (converted)): 3.19 h
Cmax ([3]; po, intragastric 5 mg/kg, read-out: Maximum Blood Concentration of Intragastric Administration (Cmax)): 6.77 µM
AUC ([3]; po, intragastric 5 mg/kg, read-out: Plasma Exposure of Intragastric Administration (AUC, nM*hr)): 26000 nM·h
Impurity Content ([5]; 0 Day (Table 5)): 0.07%
Impurity Content ([5]; 25° C/60% RH, 3 months): 0.09%
Impurity Content ([5]; 25° C/60% RH, 6 months): 0.13%
Impurity Content ([5]; 30° C/65% RH, 3 months): 0.09%
Impurity Content ([5]; 30° C/65% RH, 6 months): 0.15%
Impurity Content ([5]; 40° C/75% RH, 0 Day (Table 6)): 0.07%
Impurity Content ([5]; 40° C/75% RH, 1 month): 0.17%
Impurity Content ([5]; 40° C/75% RH, 2 months): 0.13%
Structure (SMILES): Cc1c(Cc2ccc3c(c2)C(F)(F)CCS3(=O)=O)c2cc(F)ccc2n1CC(=O)O [Crystal Form A of Compound 1]
number of eosinophils [4]: significantly reduce the number of eosinophils

Structure (SMILES): O=C(O)CCn1c2c(c3ccccc31)C[C@H](NS(=O)(=O)c1ccc(F)cc1)CC2 [Ramatroban]
CRTH2 receptor antagonism (CRTH2 receptor [6]): weak CRTH2 receptor antagonist

From patent US11034681B2, “Crystal form of indole derivative and preparation method and use thereof” (CHIA TAI TIANQING PHARMACEUTICAL GROUP CO., LTD., priority 2018, dated 2021)
